This is an account of results in the OPERA property sets (Mansouri et al. 2018).

Settings in the first data set: not given
Regarding `C=CCC(O)C=C` (configuration not stated), the boiling point (commonly the temperature at which the vapour pressure of the liquid equals the pressure above it) was 134 °C.
Consider `COc1cc(OC)nc(N=C(O)NS(=O)(=O)c2c(Cl)nc3ccccn23)n1`, for which the log10 vapour pressure (mmHg) was -9.47.
Regarding `CCCC(=O)c1ccc(Cl)cc1`, the melting point (as a rule, the temperature of the solid-liquid transition) turned out to be 19.5 °C.
`CCC=C(C)C=C(C)C` gave a boiling point of 138 °C.
Consider `CC(=O)O[C@]1(C(C)=O)CC[C@H]2[C@@H]3CCC4=CC(=O)CC[C@]4(C)[C@@]3(F)[C@@H](O)C[C@@]21C`, for which the melting point was determined as 268 °C.
The same measure, in the same setting: for `c1ccc(CN(CC2=NCCN2)c2ccccc2)cc1` the value was 120 °C.
`C=C(Cl)C(=C)Cl` returned a boiling point of 98 °C.
In the case of `COc1c2c(cc3oc(=O)ccc13)OC(C)(C)C=C2`, the melting point stood at 133 °C.
Same read-out and setting: in the case of `C#C[C@]1(OC(C)=O)CC[C@H]2[C@@H]3CCC4=C/C(=N/O)CC[C@@H]4[C@H]3CC[C@@]21CC` it was 216 °C.
Take `Nc1cccc2c(N)cccc12`: the melting point is 190 °C and the ready biodegradability result was “not readily biodegradable”.
On to `Oc1ccc2ccc(O)cc2c1`, for which the melting point amounted to 193 °C.
Same read-out and setting: for `O=C(Nc1ccc(Cl)cc1C(O)c1ccccc1)c1ccncc1` (configuration not stated) the value was 211 °C; for `CCOc1ccc2nc(S(N)(=O)=O)sc2c1`, 189 °C.
Turning to `FC(F)C(F)F`, the boiling point is -19.9 °C and the melting point is -89 °C.
`C=C1C2CCC3C(CCC4C35CCC[C@]4(C)CN3CCO[C@H]35)(C2)[C@H]1O` (some centres not stated): the melting point was 120 °C.
Same read-out and setting: for `O=c1c2ccccc2nc2n1CCc1c-2[nH]c2ccccc12` the value was 260 °C.
Take `CC1(C)C(C=C(Cl)Cl)C1C(=O)OC(C#N)c1ccc(F)c(Oc2ccccc2)c1` (configuration not stated): the log10 Koc (L/kg) was 5, the log10 vapour pressure (mmHg) was -9.82 and the melting point is 60 °C.
As to `FC(Br)Br`, the boiling point came out at 64.9 °C and the melting point was -78 °C.
As for `O=C[O-].[Na+]`, the melting point came out at 253 °C.
Same read-out and setting: for `COc1cc(N)c2c(c1N)C(=O)c1ccccc1C2=O` the value was 242 °C.
`CCCC(C)=O`: the boiling point came to 102 °C, the log10 Henry constant (atm·m³/mol) is -4.08, the log10 Koa came out at 3.19 and the log10 vapour pressure (mmHg) stood at 1.55. Besides, the melting point is -76.9 °C.
In the case of `Clc1ccc(Cl)c(-c2ccccc2)c1Cl`, the log10 Henry constant (atm·m³/mol) is -3.66.
In turn, `CC(C)C=CC(=O)O` had a boiling point of 217 °C and a melting point of 35 °C.
As to `CCCCCCC[C@H](C)O`, the boiling point came to 194 °C, the log10 vapour pressure (mmHg) was -1.17 and the melting point is -35.5 °C.
Regarding `CCCCCCCCCCCCC(=O)OC`, the log10 vapour pressure (mmHg) was -2.89 and the melting point turned out to be 6.5 °C.
For the compound `CC(C)(C)C1CCCCC1`, the boiling point amounted to 172 °C, the log10 vapour pressure (mmHg) came out at 0.368 and the melting point is -41.2 °C.
On to `COc1nsnc1NS(=O)(=O)c1ccc(N)cc1`, for which the melting point is 150 °C.
With `C[Si](C)(Cl)O[Si](C)(C)Cl`, the boiling point stood at 138 °C and the melting point is -37.5 °C.
Consider `CC1(C)CC(N)CC(C)(CN)C1` (configuration not stated), for which the boiling point amounted to 247 °C, the log10 vapour pressure (mmHg) is -1.82, the melting point amounted to 10 °C and the ready biodegradability result is “not readily biodegradable”.
Regarding `ClC1=C(Cl)C2(Cl)C3C4OC4C(Cl)C3C1(Cl)C2(Cl)Cl` (configuration not stated), the log10 Henry constant (atm·m³/mol) was -4.68, the log10 Koc (L/kg) was determined as 4.02, the log10 vapour pressure (mmHg) was -4.71 and the melting point worked out at 160 °C.
Consider `O=[N+]([O-])CC(O)C(Cl)(Cl)Cl` (configuration not stated), for which the melting point was 45.5 °C.
On the same count and under the same terms, for `c1ccc(C2(N3CCCCC3)CCCCC2)cc1` the value was 46.5 °C.
On the same count and under the same terms, in the case of `CC(C)=CCC1=C(O)C(C(=O)CC(C)C)=C(O)C(CC=C(C)C)(CC=C(C)C)C1=O` it was 93 °C.
With `CCCCC(CC)CC`, the boiling point was found to be 143 °C and the melting point is -115 °C.
As for `CCC/C=C/COC(C)=O`, the boiling point was determined as 166 °C.
As to `Cc1cccc(Nc2ccccc2)c1`, the boiling point stood at 316 °C, the log10 vapour pressure (mmHg) was -3.83 and the melting point was 30 °C.
Consider `CC(C)CCOC(=O)C(=O)OCCC(C)C`, for which the boiling point was 268 °C and the melting point was -9 °C.
With `Nc1ccc(C2CCCCC2)cc1`, the melting point was 54.5 °C.
The same measure, in the same setting: for `c1ccc(C2=NCCN2)cc1` the value was 96.5 °C.
As to `CCCCOc1ccccc1`, the boiling point was 210 °C, the log10 vapour pressure (mmHg) was -0.529 and the melting point is -19.4 °C.
As to `CC1(C)C2C=C[C@]1(C)CC2`, the boiling point is 146 °C and the melting point worked out at 113 °C.
In turn, `CCCC(O)C(=O)O` (configuration not stated) had a melting point of 34 °C.
In turn, `CCOC(=O)C(C(=O)OCC)=C(C)C` returned a boiling point of 176 °C.
In turn, `Nc1ccc(-c2ccc(N)c(N)c2)cc1N` yielded a melting point of 176 °C.
In turn, `OCc1cccc(Cl)c1` yielded a boiling point of 237 °C.
As for `FCC(F)(F)C(F)F`, the boiling point came to 26 °C, the log10 vapour pressure (mmHg) came to 2.88 and the melting point is -82 °C.
Consider `NC(=S)c1c(Cl)cccc1Cl`, for which the log10 Koc (L/kg) was determined as 2.26, the log10 vapour pressure (mmHg) was -6 and the melting point is 152 °C.
`CCC(=O)OCc1ccco1` displayed a boiling point of 195 °C.
The compound `Cc1ncc2n1-c1ccc(Cl)cc1C(c1ccccc1F)=NC2` had a melting point of 159 °C.
For the compound `CN1C(=O)C(O)N=C(c2ccccc2Cl)c2cc(Cl)ccc21` (configuration not stated), the melting point worked out at 206 °C.
Consider `CCOC(=O)CCC=O`, for which the boiling point was 162 °C.
`CC(=O)CC(C)=O`: the boiling point came out at 138 °C, the log10 vapour pressure (mmHg) was 0.471, the melting point was -23 °C and the ready biodegradability result is recorded as “readily biodegradable”.
On to `C1=Cc2cccc3cccc1c23`, for which the boiling point was 280 °C, the log10 Henry constant (atm·m³/mol) is -3.94, the log10 Koc (L/kg) stood at 3.75 and the log10 biodegradation half-life (days) is 1.58. Moreover, the log10 vapour pressure (mmHg) was -2.18, the melting point came to 92.5 °C and the ready biodegradability result is listed as “readily biodegradable”.
Consider `CCN(CC)CCN1C(=O)CN=C(c2ccccc2F)c2cc(Cl)ccc21`, for which the melting point came to 79.5 °C.
Consider `CC(C)=O`, for which the boiling point was 55.8 °C, the log10 Henry constant (atm·m³/mol) is -4.46, the log10 Koa amounted to 2.31 and the log10 vapour pressure (mmHg) was determined as 2.36. The melting point was -96.5 °C and the ready biodegradability entry is reported as “readily biodegradable”.
Take `CCCCCCCCCC[N+](C)(C)Cc1ccccc1`: the ready biodegradability result is given as “not readily biodegradable”.
Regarding `CC(C)[C@]12CC(=O)[C@H](C)[C@H]1C2`, the boiling point was determined as 203 °C and the log10 vapour pressure (mmHg) was -0.385.
Take `C=C(C)CCC(C)C`: the boiling point came to 112 °C.
Still for that read-out and setting: for `CCCCC(C)C(C)CC` (configuration not stated) the value was 163 °C.
Regarding `O=C(O)CCCCCCC(=O)O`, the boiling point was 346 °C, the log10 vapour pressure (mmHg) is -6.54 and the melting point worked out at 144 °C.
Taken in the same sequence, the figures for `OCCNc1ccccc1` were 280 °C, -2.66 and 11 °C.
Take `CC(C)(C)SC(C)(C)C`: the boiling point came to 149 °C and the melting point was -9 °C.
On to `CC(=O)[C@@]1(O)[C@H](O)C[C@H]2[C@@H]3CCC4=CC(=O)CC[C@]4(C)[C@H]3CC[C@@]21C`, for which the melting point stood at 225 °C.
`CCOC(OCC)(OCC)OCC` displayed a boiling point of 160 °C.
With `Cc1cc(N)ccc1N`, the boiling point is 274 °C and the melting point was found to be 64 °C.
`CCC1(CCC(C)C)C(=O)NC(=O)NC1=O` gave a melting point of 157 °C.
As to `N#CCCO`, the boiling point was 221 °C, the log10 vapour pressure (mmHg) is -1.1 and the melting point was -46 °C.
Turning to `CC#N`, the boiling point is 81.6 °C, the log10 Henry constant (atm·m³/mol) was -4.46, the log10 Koa was found to be 2.31 and the log10 vapour pressure (mmHg) stood at 1.95. Besides, the melting point was -43.8 °C and the ready biodegradability result is recorded as “readily biodegradable”.
`CC(C)C1(Cc2ccco2)C(=O)NC(=O)NC1=O` returned a melting point of 169 °C.
Consider `CN(C)P(=O)(N(C)C)N(C)C`, for which the boiling point was 232 °C, the log10 vapour pressure (mmHg) was -1.34, the melting point came out at 7.2 °C and the ready biodegradability entry is “not readily biodegradable”.
The compound `CCC(C)COC` (configuration not stated) returned a boiling point of 90 °C.

The data set is the same for the next values; noted with them: fish.
For `Nc1cccc2c(N)cccc12`, the log10 BCF was determined as 0.65 and the log10 biotransformation half-life (days) is -0.52.
Compound `ClC1=C(Cl)C2(Cl)C3C4OC4C(Cl)C3C1(Cl)C2(Cl)Cl` (configuration not stated) displayed a log10 biotransformation half-life (days) of 2.2.
`OCc1cccc(Cl)c1`: the log10 BCF was 1.29.
Regarding `C1=Cc2cccc3cccc1c23`, the log10 BCF was found to be 2.43 and the log10 biotransformation half-life (days) stood at 0.52.
Turning to `CN(C)P(=O)(N(C)C)N(C)C`, the log10 BCF was -0.3.
